Results taken from US6521814B1, “Use of ligands for treatment of diseases responsive to retinoids” (Institut National de la Santa et de la Recherche Medicale, priority 1997, dated 2003).

Key:
Assay type in all cases: cell-based, murine
RARα−/− F9 cells = assay: Morphological differentiation of F9 cell aggregates into visceral endoderm (VE)-like cells (morphology, RT-PCR of markers); details: 50 nM
From the text: (§1) Similarly, after 10 d of treatment, >80% of the outer layer of RARα^−/− and RXRα^−/−/RARα^−/− cell aggregates differentiated into VE-like cells, which were indistinguishable from those of WT and RXRα^−/− cells (FIG. 23A, compare f with panels b and d; and Table 9). […] To exclude the possibility that this very poor differentiation of the RXRα^−/−/RARγ^−/− cells could be due to some clonal variation, rather than the presence of the RXRα-null mutation in the RARγ-null background, we expressed the RXRα cDNA in RXRα^−/−/RARγ^−/− cells.
(§2) F9 cells were cultured and induced to differentiate into primitive, parietal and visceral endoderm-like cells as previously described (Boylan, J., et al., Proc. Natl. Acad. Sci. USA 90:9601-9605 (1993); Clifford, J., et al., EMBO J. 15:4142-4155 (1996)).
(§3) RNA preparation, RT-PCR, and Southern blotting were performed as previously described (Bouillet, P., et al., Dev. Biol. 170:420-433 (1995); Roy, B., et al., Mol. Cell. Biol. 15:6481-6487 (1995)). The PCR primers and end-labeled oligonucleotide probes for collagen IVα1, laminin B1, α-fetoprotein (AFP), and 36B4, were described previously (Clifford, J., et al ., EMBO J. 15:4142-4155 (1996)). Transcript levels were quantified using a BAS 2000 bioimaging analyzer (Fuji Ltd., Tokyo, Japan), and were normalized to the corresponding 36B4 signals.

WT F9 cells [1] = assay: as above; details: 50 nM, 10 d
From the text: as §1, §2, §3

RXRα−/− F9 cells [2] = assay: as above; details: 50 nM, 10 d
From the text: (§4) Transcript levels were quantified using a BAS 2000 bioimaging analyzer (Fuji Ltd., Tokyo, Japan), and were normalized to the corresponding 36B4 signals.

RXRα−/−/RARα−/− F9 cells [3] = assay: as above; details: 50 nM
From the text: as §4

RXRα−/−/RARγ−/− F9 cells [4] = assay: as above
From the text: as §4

RARγ−/− F9 cells = assay: Apoptosis of F9 cells (Hoechst 33258 staining, FACS); details: 1 μM, 6 d
Protocol: (§5) Apoptosis was analyzed by both Hoechst staining of nuclei and FACS® analysis, as previously described (Clifford, J., et al., EMBO J. 15:4142-4155 (1996)).

WT F9 cells [5] = assay: as above; details: 1 μM
Protocol: as §5

RXRα−/−/RARα−/− F9 cells [6] = assay: as above; details: 1 μM
RXRα−/−/RARγ−/− F9 cells [7] = assay: as above; details: 1 μM, after 5 d
RXRα−/− F9 cells [8] = assay: Differentiation of F9 cells into primitive and parietal endoderm-like cells in monolayer (morphology, RT-PCR of collagen type IVα1 and laminin B1); details: 1 μM, 48 h
From the text: (§6) The differentiation patterns of RXRα^−/−/RARα^−/−and RXRα^−/−/RARγ^−/− cells were compared with those of WT and single knockout cell lines.
as §4

RXRα−/−/RARα−/− F9 cells [9] = assay: as above
From the text: as §6, §4

RXRα−/−/RARγ−/− F9 cells [10] = assay: as above
From the text: as §6, §4

[11] = 1 μM tRA alone or with 250 μM bt2cAMP, after 4 d

For `CC1=C(/C=C/C(C)=C/C=C/C(C)=C/C(=O)O)C(C)(C)CCC1` [tRA, all-trans retinoic acid], the “proportion of outer layer of cells displaying VE morphology” value (RARα−/− F9 cells; 10 d) was “+++ (more than 80%)”, the “outer layer of cell aggregates differentiated into VE-like cells” value (RARα−/− F9 cells; after 10 d) was greater than 80% and the “induction of collagen type IVα1, laminin B1 and AFP mRNA” value (WT F9 cells [1]; WT aggregates) was “similarly induced”. The “proportion of outer layer of cells displaying VE morphology” value (WT F9 cells [1]; WT) was “+++ (more than 80%)”, the “proportion of outer layer of cells displaying VE morphology” value (RXRα−/− F9 cells [2]) was “+++ (more than 80%)” and the “induction of collagen type IVα1, laminin B1 and AFP mRNA” value (RXRα−/−/RARα−/− F9 cells [3]; RXRα−/−/RARα−/− aggregates, 10 d) was “similarly induced”. The “proportion of outer layer of cells displaying VE morphology” value (RXRα−/−/RARα−/− F9 cells [3]; RXRα−/−/RARα−/−, 10 d) was “+++ (more than 80%)”, the “outer layer of cell aggregates differentiated into VE-like cells” value (RXRα−/−/RARα−/− F9 cells [3]; RXRα−/−/RARα−/−, after 10 d) was greater than 80% and the “induction of collagen IVα1, laminin B1 or AFP mRNA” value (RXRα−/−/RARγ−/− F9 cells [4]; RXRα−/−/RARγ−/− aggregates, 50 nM, 10 d) was “no induction”. The “surface of the aggregates” value (RXRα−/−/RARγ−/− F9 cells [4]; RXRα−/−/RARγ−/−, 50 nM, after 10 days) was “as smooth after 10 days of treatment as in untreated controls”, the “aggregates displaying only a spotty VE conversion” value (RXRα−/−/RARγ−/− F9 cells [4]; RXRα−/−/RARγ−/−, after 12 or 18 d of treatment) was less than 10% and the “proportion of apoptotic nuclei and subcellular fragments (Hoechst 33258)” value (“proportion … (Hoechst 33258)” below) (RARγ−/− F9 cells) was “+ (>1-10%)”. The “proportion … (Hoechst 33258)” value (WT F9 cells [5]; 6 d) was “++ (>10%)”, the “sub-2N size DNA-containing particles ('apoptotic bodies'), FACS” value (“sub-2N size DNA-containing particles” below) (WT F9 cells [5]; after 5 d) was “appeared” and the “proportion … (Hoechst 33258)” value (RXRα−/−/RARα−/− F9 cells [6]; 6 d) was “± (<1%)”. The “sub-2N size DNA-containing particles” value (RXRα−/−/RARα−/− F9 cells [6]; after 5 d) was “not detected”, the “sub-2N size DNA-containing particles” value (RXRα−/−/RARγ−/− F9 cells [7]) was “not detected” and the “induction of collagen type IVα1 mRNA, lower level compared to WT cells” value (RXRα−/− F9 cells [8]) was 3 fold. The “induction of laminin B1 mRNA, lower level compared to WT cells” value (RXRα−/− F9 cells [8]) was 6 fold, the “cells with morphological characteristics of primitive or parietal endodermal differentiation” value (RXRα−/−/RARα−/− F9 cells [9]; [11]) was less than 10% and the “induction of collagen type IVα1 mRNA, lower level compared to WT cells” value (RXRα−/−/RARα−/− F9 cells [9]; 1 μM, 48 h) was “five”. The morphological differentiation (RXRα−/−/RARγ−/− F9 cells [10]; [11]) was “No morphological differentiation at all”, the “induction of collagen type IVα1 and laminin B1 mRNA” value (RXRα−/−/RARγ−/− F9 cells [10]; 1 μM, 48 h) was “fully abrogated” and the “cells exhibiting a differentiated morphology” value (RXRα−/−/RARγ−/− F9 cells [10]; after 6 days of treatment) was less than 0.1%. The morphological differentiation (RXRα−/−/RARγ−/− F9 cells [10]; after 10 d of treatment) was “undifferentiated phenotype persisted”.
